Assay results as given in ChEMBL document CHEMBL1155981, “Molecular modeling studies to predict the possible binding modes of endomorphin analogs in mu opioid receptor” (Bioorg Med Chem Lett, 2009).
Peptide text beside a SMILES is read from it. * marks the point of attachment. NHBn = c1ccc(CN*)cc1

Biological target: Mu-type opioid receptor (Homo sapiens, UniProt P35372)
Test: Binding affinity to human mu opioid receptor

Sequence of Mu-type opioid receptor (P35372 whole entry): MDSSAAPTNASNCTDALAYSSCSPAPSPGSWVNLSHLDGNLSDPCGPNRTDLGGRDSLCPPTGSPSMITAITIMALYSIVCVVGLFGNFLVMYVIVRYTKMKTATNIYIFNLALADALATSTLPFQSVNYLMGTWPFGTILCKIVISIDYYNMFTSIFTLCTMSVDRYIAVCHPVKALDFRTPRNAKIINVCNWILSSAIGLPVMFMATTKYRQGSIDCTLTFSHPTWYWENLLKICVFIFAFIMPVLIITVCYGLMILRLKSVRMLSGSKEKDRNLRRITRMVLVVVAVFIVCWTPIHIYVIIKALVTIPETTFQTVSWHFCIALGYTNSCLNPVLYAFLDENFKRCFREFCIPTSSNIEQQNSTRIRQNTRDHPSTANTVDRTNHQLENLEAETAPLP

Compound	Ki [nM]
N[C@@H](Cc1ccc(O)cc1)C(=O)N1CCC[C@H]1C(=O)N[C@@H](Cc1c[nH]c2ccccc12)C(=O)NCC(=O)NCc1ccccc1 (H-YPWG-NHBn)	56.2
CC(C)[C@@H](NC(=O)[C@H](Cc1c[nH]c2ccccc12)NC(=O)[C@@H]1CCCN1C(=O)[C@@H](N)Cc1ccc(O)cc1)C(=O)NCc1ccccc1	2.32
C[C@@H](NC(=O)[C@H](Cc1c[nH]c2ccccc12)NC(=O)[C@@H]1CCCN1C(=O)[C@@H](N)Cc1ccc(O)cc1)C(=O)NCc1ccccc1	4.56
C[C@@H](NC(=O)[C@H](Cc1ccccc1)NC(=O)[C@@H]1CCCN1C(=O)[C@@H](N)Cc1ccc(O)cc1)C(=O)NCc1ccccc1	8.67
CC(C)[C@@H](NC(=O)[C@H](Cc1ccccc1)NC(=O)[C@@H]1CCCN1C(=O)[C@@H](N)Cc1ccc(O)cc1)C(=O)NCc1ccccc1	4.97
C[C@H](NC(=O)[C@H](Cc1ccccc1)NC(=O)[C@@H]1CCCN1C(=O)[C@@H](N)Cc1ccc(O)cc1)C(=O)NCc1ccccc1	122
